Measurements reported in PMC2639596, “Antimicrobial peptides effectively kill a broad spectrum of Listeria monocytogenes and Staphylococcus aureus strains independently of origin, sub-type, or virulence factor expression” (BMC Microbiology, 2008).
Read-outs that look alike come from different tables or passages of the source. Bridge positions count the residues as written; N and C are the ends. Ends that are not written are not given here.

What was measured:
[1] = tested on: L. monocytogenes and S. aureus; test: Minimum bactericidal concentration (MBC), plating from MIC wells; assay type: cell-based, Listeria monocytogenes, Staphylococcus aureus; conditions: 99.9% reduction of initial inoculum; 10 μl from wells with no visible growth plated on BHI agar
Procedure: The strain collection was tested for sensitivity to protamine, plectasin, novicidin, and novispirin G10 by determining their minimal inhibitory concentration (MIC) using a microbroth dilution method. Colonies from a BHI agar plate incubated overnight were suspended in MHB pH 7.4 to a turbidity of 0.11–0.12 at 546 nm (approx. 1.0 × 10^8 CFU/ml) and diluted in MHB to a concentration of 5.0 × 10^5 CFU/ml. 90 μl of bacterial suspension was incubated with 10 μl of peptide solution in polypropylene 96-well plates (Nunc, 442587) for 18–24 h at 37°C. The peptide solutions were made fresh on the day of assay and diluted two-fold. The range of concentrations assayed were 0.031–32 μg/ml for novicidin, 0.125–128 μg/ml for protamine and novispirin G10, and 0.25–256 μg/ml for plectasin. MIC was the lowest peptide concentration at which visual growth was inhibited. The minimum bactericidal concentration (MBC) values were determined by plating l0 μl samples from wells with no visible growth onto BHI agar plates. MBC was the lowest concentration of each peptide of which 99.9% reduction of the initial inoculum was observed.

[2] = tested on: Staphylococcus aureus; assay type: cell-based; conditions: radial diffusion, MHB pH 7.4/1% agarose/0.1% glucose, overnight, 37°C
Procedure: (§1) Experiments were carried out with a collection of 25 Listeria monocytogenes strains (Table 1) and 16 Staphylococcus aureus strains (Table 2) representing different lineages and serotypes (L. monocytogenes), spa types (S. aureus), and origins (food processing environment, food products, and human clinical isolates). Six L. monocytogenes strains were mutants of the EGD strain and were mutated in genes known to be involved in stress tolerance. The S. aureus collection comprised two deletion mutants, strains Sa113/ΔmprF [8] and Sa113/ΔdltA [7], known to be more sensitive to host defense peptides. Two of the S. aureus strains could not immediately be assigned to an existing spa type and we are in the process of acquiring the additional information that is needed to assign a new spa type to them. The strains were obtained from The National Institute of Aquatic Resources and The National Food Institute, Technical University of Denmark, Faculty of Life Sciences, University of Copenhagen, Denmark, Statens Serum Institut, Denmark, University of Würzburg, Germany and Campden Food and Drink Association, United Kingdom. Stock cultures were stored at -80°C in 4% (w/V) glycerol, 0.5% (w/V) glucose, and 2.0% (w/V) skimmed milk powder. The bacteria were grown in Brain Heart Infusion (BHI) broth (Oxoid, CM0225), Tryptone Soy Broth (TSB) (Oxoid, CM129), and cation-adjusted Mueller-Hinton II Broth (MHB) (Becton Dickinson, 212322) adjusted to pH 7.4. To avoid unspecific binding of host defense peptides to plastic ware and agar, all MIC determinations were carried out using polypropylene plastic ware and radial diffusion assays were carried out in MHB supplemented with 1% agarose (Invitrogen, 15510-027) as gelling agent.
(§2) Protamine was purchased from Sigma (P4020-5G). Plectasin, novicidin, and novispirin G10 were supplied by Novozymes A/S. Recombinant HBD-3 was purchased from PeproTech (300-52).
(§3) Each strain was tested in two independent trials.

[3] = tested on: Listeria monocytogenes; assay type: cell-based; conditions: radial diffusion, MHB pH 7.4/1% agarose/0.1% glucose, overnight, 37°C
Procedure: as §1, §2, §3

Compound: CC[C@H](C)[C@@H]1NC(=O)[C@H](CO)NC(=O)[C@H](CCCCN)NC(=O)[C@@H]2CSSC[C@@H](C(=O)N[C@@H](Cc3ccc(O)cc3)C(=O)O)NC(=O)[C@H](CCCCN)NC(=O)[C@@H]3CSSC[C@H](NC(=O)[C@H](CCC(N)=O)NC(=O)[C@H](CCSC)NC(=O)[C@H](CC(=O)O)NC(=O)[C@H](CC(=O)O)NC(=O)[C@H](CCC(=O)O)NC(=O)[C@H](CC(=O)O)NC(=O)[C@H](Cc4c[nH]c5ccccc45)NC(=O)[C@@H]4CCCN4C(=O)CNC(=O)[C@H](CC(N)=O)NC(=O)[C@@H](NC(=O)CNC(=O)[C@H](Cc4ccccc4)NC(=O)CN)CSSC[C@H](NC(=O)[C@H](Cc4ccc(O)cc4)NC(=O)CNC(=O)CNC(=O)[C@H](CCCCN)NC(=O)[C@H](Cc4ccc(O)cc4)NC(=O)CNC(=O)[C@H](CCCCN)NC1=O)C(=O)N[C@@H](C)C(=O)N[C@@H](CCCCN)C(=O)NCC(=O)NCC(=O)N[C@@H](Cc1ccccc1)C(=O)N[C@@H](C(C)C)C(=O)N3)C(=O)N[C@@H](Cc1c[nH]cn1)C(=O)N[C@@H](CC(N)=O)C(=O)N[C@@H](Cc1c[nH]cn1)C(=O)N2 [plectasin]
- minimum bactericidal concentrations (MBC) [1]: identical to the MICs

Compound: GIINTLQKYYCRVRGGRCAVLSCLPKEEQIGKCSTRGRKCCRRKK (disulfide 11-40, 18-33, 23-41 (inferred)) [HBD-3, human β-defensin 3]
- MIC (MEC) ([2]; strain 796, first of two values (two independent trials)): 64/64 μg/ml
- MIC (MEC) ([2]; strain 796, second of two values (two independent trials)): 64/64 μg/ml
- MIC (MEC) ([2]; strain 2148-jvi, first of two values (two independent trials)): 32/32 μg/ml
- MIC (MEC) ([2]; strain 2148-jvi, second of two values (two independent trials)): 32/32 μg/ml
- MIC (MEC) ([2]; strain 8325-4, first of two values (two independent trials)): 32/32 μg/ml
- MIC (MEC) ([2]; strain 8325-4, second of two values (two independent trials)): 32/32 μg/ml
- MIC (MEC) ([2]; strain 14943, first of two values (two independent trials)): 32 µg/mL
- MIC (MEC) ([2]; strain 14943, second of two values (two independent trials)): 64 µg/mL
- MIC (MEC) ([2]; strain B31369, first of two values (two independent trials)): 64/64 μg/ml
- MIC (MEC) ([2]; strain B31369, second of two values (two independent trials)): 64/64 μg/ml
- MIC (MEC) ([2]; strain K3-B2, first of two values (two independent trials)): 32 µg/mL
- MIC (MEC) ([2]; strain K3-B2, second of two values (two independent trials)): 64 µg/mL
- MIC (MEC) ([2]; strain KES 626, first of two values (two independent trials)): 32 µg/mL
- MIC (MEC) ([2]; strain KES 626, second of two values (two independent trials)): 64 µg/mL
- MIC (MEC) ([3]; strain 4446, first of two values (two independent trials)): 16/16 μg/ml
- MIC (MEC) ([3]; strain 4446, second of two values (two independent trials)): 16/16 μg/ml
- MIC (MEC) ([3]; strain 7418, first of two values (two independent trials)): 4 µg/mL
- MIC (MEC) ([3]; strain 7418, second of two values (two independent trials)): 8 µg/mL
- MIC (MEC) ([3]; strain EGD, first of two values (two independent trials)): 16/16 μg/ml
- MIC (MEC) ([3]; strain EGD, second of two values (two independent trials)): 16/16 μg/ml
- MIC (MEC) ([3]; strain La22, first of two values (two independent trials)): 16/16 μg/ml
- MIC (MEC) ([3]; strain La22, second of two values (two independent trials)): 16/16 μg/ml
- MIC (MEC) ([3]; strain La111, first of two values (two independent trials)): 8 µg/mL
- MIC (MEC) ([3]; strain La111, second of two values (two independent trials)): 16 µg/mL
- MIC (MEC) ([3]; strain N53-1, first of two values (two independent trials)): 16 µg/mL
- MIC (MEC) ([3]; strain N53-1, second of two values (two independent trials)): 32 µg/mL
- MIC (MEC) ([3]; strain Scott A, first of two values (two independent trials)): 8/8 μg/ml
- MIC (MEC) ([3]; strain Scott A, second of two values (two independent trials)): 8/8 μg/ml
